According to PubChem BioAssay AID1963863 (Molecular Pharmacology Branch, DTP, NCI, 2024):

Tested on: 931267-113-T-J1-PDC KRAS spheroid with HUVEC/MSC, viability
Test: Anticancer human tumor 931267-113-T-J1-PDC patient-derived colon adenocarcinoma cell line growth inhibition [KRAS2]
Conditions: for IC50: curve of first compound; for viability, T/C: stronger effect = lower value
Method in brief: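 Combination screen of spheroid viability in tumor-cell co-cultures with endothelial (HUVEC) and mesenchymal stem cell stroma. Each agent was tested in half-log dilutions, topping at clinical Cmax or at 10 microM without a known Cmax.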

[1] = second compound 0.1 µM, first compound 0.000316 µM
[2] = second compound 0.1 µM, first compound 0.001 µM
[3] = second compound 0.1 µM, first compound 0.00316 µM
[4] = second compound 0.1 µM, first compound 0.01 µM
[5] = second compound 0.1 µM, first compound 0.0316 µM
[6] = second compound 0.1 µM, first compound 0.1 µM
[7] = second compound 0.316 µM, first compound 0.000316 µM
[8] = second compound 0.316 µM, first compound 0.001 µM
[9] = second compound 0.316 µM, first compound 0.00316 µM
[10] = second compound 0.316 µM, first compound 0.01 µM
[11] = second compound 0.316 µM, first compound 0.0316 µM
[12] = second compound 0.316 µM, first compound 0.1 µM
[13] = second compound 1 µM, first compound 0.000316 µM
[14] = second compound 1 µM, first compound 0.001 µM
[15] = second compound 1 µM, first compound 0.00316 µM
[16] = second compound 1 µM, first compound 0.01 µM
[17] = second compound 1 µM, first compound 0.0316 µM
[18] = second compound 1 µM, first compound 0.1 µM
[19] = second compound 3.16 µM, first compound 0.000316 µM
[20] = second compound 3.16 µM, first compound 0.001 µM
[21] = second compound 3.16 µM, first compound 0.00316 µM
[22] = second compound 3.16 µM, first compound 0.01 µM
[23] = second compound 3.16 µM, first compound 0.0316 µM
[24] = second compound 3.16 µM, first compound 0.1 µM
[25] = second compound 10 µM, first compound 0.000316 µM
[26] = second compound 10 µM, first compound 0.001 µM
[27] = second compound 10 µM, first compound 0.00316 µM
[28] = second compound 10 µM, first compound 0.01 µM
[29] = second compound 10 µM, first compound 0.0316 µM
[30] = second compound 10 µM, first compound 0.1 µM
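Also: compound exposure lasted 7 days before the readout.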
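For viability, T/C in this document: 100% = DMSO vehicle control viability.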

Row | SMILES | IC50 (second compound 0.1 µM) [nM] | IC50 (second compound 0.316 µM) [nM] | IC50 (second compound 1 µM) [nM] | IC50 (second compound 3.16 µM) [nM] | IC50 (second compound 10 µM) [nM] | viability, T/C [1] [%] | viability, T/C [2] [%] | viability, T/C [3] [%] | viability, T/C [4] [%] | viability, T/C [5] [%] | viability, T/C [6] [%] | viability, T/C [7] [%] | viability, T/C [11] [%] | viability, T/C [12] [%] | viability, T/C [17] [%] | viability, T/C [18] [%] | viability, T/C [23] [%] | viability, T/C [24] [%] | viability, T/C [29] [%] | viability, T/C [30] [%] | other results
1 | CC(C)n1nc(-c2ccc3oc(N)nc3c2)c2c(N)ncnc21 + CNCc1ccccc1-c1csc(C(C)Nc2nc(C)nc3cc(OC)c(OC)cc23)c1 | 6.18 | 4.24 | 1.01 | < 0.316 | < 0.316 | 87.3 | 87.7 | 68.4 | 37.2 | 24.2 | 27.2 | 85.6 | 27.7 | 19.8 | 12.7 | 5.59 | 0.07 | 0.21 | 0.33 | 0.4 | viability, T/C [8]: 67.8%; viability, T/C [9]: 55.5%; viability, T/C [10]: 38.7%; viability, T/C [13]: 51.3%; viability, T/C [14]: 57.2%; viability, T/C [15]: 33.2%; viability, T/C [16]: 24.1%; viability, T/C [19]: 0.15%; viability, T/C [20]: 0.12%; viability, T/C [21]: 0.09%; viability, T/C [22]: 0.08%; viability, T/C [25]: 0.19%; viability, T/C [26]: 0.81%; viability, T/C [27]: 0.23%; viability, T/C [28]: 0.29%
2 | CC1(C)CCC(CN2CCN(c3ccc(C(=O)NS(=O)(=O)c4ccc(NCC5CCOCC5)c([N+](=O)[O-])c4)c(Oc4cnc5[nH]ccc5c4)c3)CC2)=C(c2ccc(Cl)cc2)C1 + CNCc1ccccc1-c1csc(C(C)Nc2nc(C)nc3cc(OC)c(OC)cc23)c1 | 1920 | 1750 | < 31.6 | < 31.6 | < 31.6 | – | – | – | – | 107 | 95.7 | – | 82.6 | 69.5 | 41.8 | 47.4 | 0.12 | 0.09 | 0.18 | 0.28 | viability, T/C (second compound 0.1 µM, first compound 0.316 µM): 106%; viability, T/C (second compound 0.1 µM, first compound 1 µM): 83.6%; viability, T/C (second compound 0.1 µM, first compound 3.16 µM): 24%; viability, T/C (second compound 0.1 µM, first compound 10 µM): 4.79%; viability, T/C (second compound 0.316 µM, first compound 0.316 µM): 83.6%; viability, T/C (second compound 0.316 µM, first compound 1 µM): 81.1%; viability, T/C (second compound 0.316 µM, first compound 3.16 µM): 19.3%; viability, T/C (second compound 0.316 µM, first compound 10 µM): 1.1%; viability, T/C (second compound 1 µM, first compound 0.316 µM): 54%; viability, T/C (second compound 1 µM, first compound 1 µM): 39.2%; viability, T/C (second compound 1 µM, first compound 3.16 µM): 4.62%; viability, T/C (second compound 1 µM, first compound 10 µM): 0.48%; viability, T/C (second compound 3.16 µM, first compound 0.316 µM): 0.2%; viability, T/C (second compound 3.16 µM, first compound 1 µM): 0.08%; viability, T/C (second compound 3.16 µM, first compound 3.16 µM): 0.05%; viability, T/C (second compound 3.16 µM, first compound 10 µM): 0.38%; viability, T/C (second compound 10 µM, first compound 0.316 µM): 0.14%; viability, T/C (second compound 10 µM, first compound 1 µM): 0.17%; viability, T/C (second compound 10 µM, first compound 3.16 µM): 0.44%; viability, T/C (second compound 10 µM, first compound 10 µM): 1.23%
3 | Cn1ncnc1[C@H]1c2n[nH]c(=O)c3cc(F)cc(c23)N[C@@H]1c1ccc(F)cc1 + CNCc1ccccc1-c1csc(C(C)Nc2nc(C)nc3cc(OC)c(OC)cc23)c1 | > 100 | > 100 | < 0.316 | < 0.316 | < 0.316 | 95.4 | 85.4 | 92.4 | 84 | 80.9 | 72.6 | 62.4 | 52.5 | 56.6 | 52.6 | 32.3 | 0.1 | 0.19 | 0.16 | 0.98 | viability, T/C [8]: 66.7%; viability, T/C [9]: 66.5%; viability, T/C [10]: 59.9%; viability, T/C [13]: 42.1%; viability, T/C [14]: 61.8%; viability, T/C [15]: 43.2%; viability, T/C [16]: 32.8%; viability, T/C [19]: 0.09%; viability, T/C [20]: 0.09%; viability, T/C [21]: 0.09%; viability, T/C [22]: 0.07%; viability, T/C [25]: 0.14%; viability, T/C [26]: 0.13%; viability, T/C [27]: 0.13%; viability, T/C [28]: 0.14%
